Earlier results as cited in EP3581172B1, “A PHARMACEUTICAL COMPOSITION WITH ENHANCED BIOAVAILABILITY CONTAINING A MEDICAL HERBAL EXTRACT” (TFLL Pharmaceutical Food Supplements and Cosmetic Products …, priority 2018, dated 2019).
Read-outs that look alike come from different tables or passages of the source.

Assays:
[1] = test system: colon cancer stimulated by 1,2-dimethylhydrazine (DMH)
[2] = test system: esophageal carcinogenesis; details: rats, by diet (500 ppm)
breast cancer = details: topical curcumin ointment; 7 breast cancer patients
adenoma = details: rats

## COc1cc(CCC(=O)CC(=O)CCc2ccc(O)c(OC)c2)ccc1O [THC, tetrahydrokurkuminin]
[1]
  effect on upper and lower half sections of colon crypts: significant decrease

## COc1cc(/C=C/C(=O)CC(=O)/C=C/c2ccc(O)c(OC)c2)ccc1O [curcumin, (1E,6E)-1,7-bis (4-hydroxy-3-methoxyphenyl)-1,6-heptadiene-3,5-dione]
[2]; maintenance dose
  esophageal carcinogenesis inhibited: 33%
[2]; onset dose
  esophageal carcinogenesis inhibited: 27%
Breast cancer
  positive responses (significant reduction in lesion size, pain, itching and leaks), share of patients: 71%
other
  water solubility: almost negligible
adenoma; by diet 0.2% for 15 weeks
  decrease in adenoma: 39%
adenoma; by diet 0.5% for 15 weeks
  decrease in adenoma: 40%

## COc1ccc(/C=C/C(=O)CC(=O)/C=C/c2ccc(OC)c(OC)c2)cc1OC [dimethoxycurcumin]
HCT116 cells
  reducing proliferation and stimulating apoptosis, compared to curcumin: more effective
